Legend:
Assay in all cases: viability relative to DMSO control (fraction); higher = less drug effect (more viable cells)
Conditions in all cases: 48 h
[1] = test system: primary ALL patient cells (S048)
How it was run: (§1)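 Viability is given as CellTiter-Glo luminescence relative to the median of 16 inner DMSO wells. Fresh or cryopreserved primary mononuclear tumour cells from blood, bone marrow (both Ficoll-isolated) or processed lymph node were plated at 4 × 10^4 cells per well in 384-well plates against five pre-plated compound concentrations, one well each. Incubation lasted 48 h at 37 °C and 5% CO2 in RPMI-1640 with penicillin/streptomycin, L-glutamine and human serum.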

[2] = test system: primary AML patient cells (S002)
How it was run: as §1

[3] = test system: primary AML patient cells (S012)
How it was run: as §1

[4] = test system: primary AML patient cells (S017)
How it was run: as §1

[5] = test system: primary AML patient cells (S019)
How it was run: as §1

[6] = test system: primary AML patient cells (S025)
How it was run: as §1

[7] = test system: primary AML patient cells (S037)
How it was run: as §1

[8] = test system: primary AML patient cells (S056)
How it was run: as §1

[9] = test system: primary AML patient cells (S071)
How it was run: as §1

[10] = test system: primary AML patient cells (S072)
How it was run: as §1

[11] = test system: primary AML patient cells (S079)
How it was run: as §1

[12] = test system: primary AML patient cells (S085)
How it was run: as §1

[13] = test system: primary AML patient cells (S089)
How it was run: as §1

[14] = test system: primary AML patient cells (S091)
How it was run: as §1

[15] = test system: primary BL patient cells (S005)
How it was run: as §1

[16] = test system: primary CLL patient cells (S031)
How it was run: as §1

[17] = test system: primary CLL patient cells (S043)
How it was run: as §1

[18] = test system: primary FL patient cells (S022)
How it was run: as §1

[19] = test system: primary MCL patient cells (S053)
How it was run: as §1

[20] = test system: primary MCL patient cells (S068)
How it was run: as §1

`CC(C)(C)C[C@@H]1N[C@@H](C(=O)N[C@H]2CC[C@H](O)CC2)[C@H](c2cccc(Cl)c2F)[C@]12C(=O)Nc1cc(Cl)ccc12` [MI-773] was tested, and the viability ([1]; 0.008 µM) was 1.01, the viability ([1]; 0.04 µM) was 0.992 and the viability ([1]; 0.2 µM) was 0.799. The viability ([1]; 1 µM) was 0.472, the viability ([1]; 5 µM) was 0.0627 and the viability ([2]; 0.008 µM) was 0.994. For the same compound, the viability ([2]; 0.04 µM) was 0.926, the viability ([2]; 0.2 µM) was 0.688 and the viability ([2]; 1 µM) was 0.413. For the same compound, the viability ([2]; 5 µM) was 0.253, the viability ([3]; 0.008 µM) was 0.96 and the viability ([3]; 0.04 µM) was 0.971. It also gave a viability ([3]; 0.2 µM) of 0.937, a viability ([3]; 1 µM) of 0.976 and a viability ([3]; 5 µM) of 1.02. For the same compound, the viability ([4]; 0.008 µM) was 1.06, the viability ([4]; 0.04 µM) was 0.896 and the viability ([4]; 0.2 µM) was 0.806. The viability ([4]; 1 µM) was 0.877, the viability ([4]; 5 µM) was 0.834 and the viability ([5]; 0.008 µM) was 1.34. For the same compound, the viability ([5]; 0.04 µM) was 1.23, the viability ([5]; 0.2 µM) was 1.19 and the viability ([5]; 1 µM) was 0.689. The viability ([5]; 5 µM) was 0.343, the viability ([6]; 0.008 µM) was 1.12 and the viability ([6]; 0.04 µM) was 0.901. It also gave a viability ([6]; 0.2 µM) of 0.818, a viability ([6]; 1 µM) of 0.421 and a viability ([6]; 5 µM) of 0.202. For the same compound, the viability ([7]; 0.008 µM) was 1.04, the viability ([7]; 0.04 µM) was 1.01 and the viability ([7]; 0.2 µM) was 1.01. For the same compound, the viability ([7]; 1 µM) was 0.742, the viability ([7]; 5 µM) was 0.453 and the viability ([8]; 0.008 µM) was 1.03. It also gave a viability ([8]; 0.04 µM) of 0.9, a viability ([8]; 0.2 µM) of 0.696 and a viability ([8]; 1 µM) of 0.296. For the same compound, the viability ([8]; 5 µM) was 0.117, the viability ([9]; 0.008 µM) was 0.991 and the viability ([9]; 0.04 µM) was 0.732. The viability ([9]; 0.2 µM) was 0.32, the viability ([9]; 1 µM) was 0.132 and the viability ([9]; 5 µM) was 0.0874. It also gave a viability ([10]; 0.008 µM) of 1.06, a viability ([10]; 0.04 µM) of 0.843 and a viability ([10]; 0.2 µM) of 0.934. For the same compound, the viability ([10]; 1 µM) was 0.775, the viability ([10]; 5 µM) was 0.762 and the viability ([11]; 0.008 µM) was 1.01. For the same compound, the viability ([11]; 0.04 µM) was 1.01, the viability ([11]; 0.2 µM) was 1.01 and the viability ([11]; 1 µM) was 0.901. For the same compound, the viability ([11]; 5 µM) was 0.636, the viability ([12]; 0.008 µM) was 1.08 and the viability ([12]; 0.04 µM) was 0.972. It also gave a viability ([12]; 0.2 µM) of 0.849, a viability ([12]; 1 µM) of 0.481 and a viability ([12]; 5 µM) of 0.204. It also gave a viability ([13]; 0.008 µM) of 0.993, a viability ([13]; 0.04 µM) of 0.973 and a viability ([13]; 0.2 µM) of 0.938. For the same compound, the viability ([13]; 1 µM) was 0.842, the viability ([13]; 5 µM) was 0.493 and the viability ([14]; 0.008 µM) was 0.979. It also gave a viability ([14]; 0.04 µM) of 0.781, a viability ([14]; 0.2 µM) of 0.587 and a viability ([14]; 1 µM) of 0.428. The viability ([14]; 5 µM) was 0.321, the viability ([15]; 0.008 µM) was 0.915 and the viability ([15]; 0.04 µM) was 0.744. For the same compound, the viability ([15]; 0.2 µM) was 0.789, the viability ([15]; 1 µM) was 0.897 and the viability ([15]; 5 µM) was 0.903. The viability ([16]; 0.008 µM) was 0.97, the viability ([16]; 0.04 µM) was 0.819 and the viability ([16]; 0.2 µM) was 0.593. The viability ([16]; 1 µM) was 0.439, the viability ([16]; 5 µM) was 0.0647 and the viability ([17]; 0.008 µM) was 1.05. The viability ([17]; 0.04 µM) was 0.949, the viability ([17]; 0.2 µM) was 1 and the viability ([17]; 1 µM) was 0.879. For the same compound, the viability ([17]; 5 µM) was 0.441, the viability ([18]; 0.008 µM) was 1.02 and the viability ([18]; 0.04 µM) was 0.934. For the same compound, the viability ([18]; 0.2 µM) was 0.957, the viability ([18]; 1 µM) was 0.947 and the viability ([18]; 5 µM) was 0.722. It also gave a viability ([19]; 0.008 µM) of 1.11, a viability ([19]; 0.04 µM) of 0.915 and a viability ([19]; 0.2 µM) of 0.755. The viability ([19]; 1 µM) was 0.424, the viability ([19]; 5 µM) was 0.347 and the viability ([20]; 0.008 µM) was 1.08. For the same compound, the viability ([20]; 0.04 µM) was 0.944, the viability ([20]; 0.2 µM) was 0.986 and the viability ([20]; 1 µM) was 0.854. The viability ([20]; 5 µM) was 0.68.

Source: the supplement of paper PMC10733146
